In doi:10.1101/2022.04.05.487228v1 (biorxiv, 2022) one finds EC50 data, which are given here for 4 molecules.

This experiment addresses bovine rod opsin (unliganded, in ROS membranes) (Bos taurus, UniProt P02699). Nature of the experiment: intrinsic Trp fluorescence quenching at […] nm. Type of experiment: binding.

Sequence of bovine rod opsin (unliganded, in ROS membranes) (P02699 whole entry): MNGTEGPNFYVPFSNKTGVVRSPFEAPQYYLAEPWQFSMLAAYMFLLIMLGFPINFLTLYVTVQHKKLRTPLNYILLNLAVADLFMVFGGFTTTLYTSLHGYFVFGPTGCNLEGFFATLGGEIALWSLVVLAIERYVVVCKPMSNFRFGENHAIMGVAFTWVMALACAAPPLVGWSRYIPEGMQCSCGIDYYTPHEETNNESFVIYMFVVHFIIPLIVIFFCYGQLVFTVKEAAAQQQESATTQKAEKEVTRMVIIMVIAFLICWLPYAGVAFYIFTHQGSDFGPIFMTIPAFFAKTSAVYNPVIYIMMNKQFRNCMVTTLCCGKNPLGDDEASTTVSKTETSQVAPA

`Cc1cc(=O)oc2cc(OC(C(=O)c3ccccc3)c3ccccc3)ccc12` (stereo not shown) [CR1] displayed a 50% effective concentration (EC50) of 275 ± 26 nM.
Turning to `Cc1c(OC(C)C(=O)OCc2ccccc2)ccc2c3c(c(=O)oc12)CCC3` (stereo not shown) [CR4], the EC50 was determined as 171 ± 23 nM.
`Cc1c(OCc2ccc(C(=O)O)cc2)ccc2c3c(c(=O)oc12)CCC3` [CR2] displayed a half-maximal effective concentration (EC50) of 375 ± 21 nM. Compared with the last molecule, the EC50 is about 2.2-fold higher.
Under `Cc1ccc(C(=O)Oc2ccc3c4c(c(=O)oc3c2)CCCC4)cc1` [CR3] stands 207 ± 46 nM.
